{"source": "paper PMC12337661", "about": "“PIEZO1 mechanical insensitivity in generalized lymphatic dysplasia with the potential for pharmacological rescue” (iScience, 2025)", "test_system": "T-REx-293 cells, empty vector (vector control)", "assay": "Intracellular Ca2+ measurement (fura-2), T-REx-293 cells transiently transfected with empty vector", "type": "cell-based", "conditions": "1 μM", "method": "HEK 293 cell line was transiently transfected at 90% confluence using Lipofectamine 2000 (Invitrogen) in OptiMEM (Gibco). Briefly: 500 ng endotoxin-free DNA per 100μL OptiMEM was prepared alongside 3μL Lipofectamine 2000 per 100μL OptiMEM (Gibco). Both were incubated for 5 min and then mixed, and then incubated at room temperature (21°C–24°C) for 20–30 min. Finally, the transfection mix was gently added dropwise to the cells and the cells were placed in a humidified incubator at 37°C supplied with 5% CO2 for 5 h. Medium was replaced afterward, and cells were used for experimentation 48 h after transfection.\nFor intracellular Ca^2+ assays, cells were plated at 80–90% confluence in 96-well plates 24 h prior to recordings (6–8 × 10^4 cells per well). […] Cells were washed with SBS and incubated at room temperature for 20 min prior to recordings. Equal volumes of 2x concentrated compounds were injected to test for acute channel activation. Pre-incubation with compounds occurred during the 20 min prior to recordings. To expose cell membranes to hypo-osmolality, an equal volume of hypotonic SBS (containing only 35 mM NaCl) was injected onto the cells. Measurements were made on a fluorescence plate reader (Flexstation III, Molecular Devices) at room temperature (21 ± 2°C). Fura-2 was excited at 340 nm and 380 nm and emitted light collected at 510 nm, with measurements shown as the change in fluorescence (F) ratio (ΔF340/380).\nKC41 (Dooku1) was prepared as described.[28] All purchased chemicals and solvents were used without further purification unless otherwise stated. All compounds were at least 95% pure by 1H NMR. 1H Nuclear Magnetic Resonance spectra were recorded at 500 MHz using a Bruker DRX 500 instrument or at 400 MHz using a Bruker DPX 400. 1H spectra are referenced based on the residual proton in the solvent (e.g., the CHCl3, 0.01% in 99.99% CDCl3). Coupling constants (J) are reported to the nearest 0.1 Hz. 13C NMR spectra were recorded at 125 MHz on 500 MHz spectrometers or at 100 MHz on 400 MHz spectrometers. LC-MS was performed on a Bruker Daltronics running a gradient of increasing acetonitrile (5–95%) in H2O both containing 0.1% formic acid at 1 mL.min^−1, on a short path C18 reverse phase column, detecting compounds with both a diode array detector and a Bruker mass spectrum analyser. HRMS was performed on a Bruker Daltonics micrOTOF using positive electrospray ionisation (ES+). Automated column chromatograph was carried out using a Biotage Isolera Four, using either Sfär Silica D or KP-Silica cartridges. HPLC was performed on an Agilent 1290 Infinity Series equipped with a UV detector and Hyperprep C18 reverse phase column. Key to NMR abbreviations: s (singlet), br s (broad singlet) d (doublet), dd (doublet of doublets), ddd (doublet of doublets of doublets), t (triplet), dt (doublet of triples), q (quartet), m (multiplet), ap. t (apparent triplet). For experiments, Yoda1 and its analogues were prepared as 10 mM stock solutions in 100% dimethyl sulfoxide (DMSO) before serial dilution in DMSO and final dilution in aqueous solution. Cells were exposed to 0.1% DMSO for all concentrations of the compounds from 0 to 10 μM."}
{"smiles": "Clc1cccc(Cl)c1CSc1nnc(-c2cnccn2)s1", "note": "[Yoda1]", "values": [{"measurement": "fluorescence (ΔFratio)", "setting": "time 0 s", "value": 0.00237}, {"measurement": "fluorescence (ΔFratio)", "setting": "time 5 s", "value": -0.00988}, {"measurement": "fluorescence (ΔFratio)", "setting": "time 10 s", "value": 0.01607}, {"measurement": "fluorescence (ΔFratio)", "setting": "time 15 s", "value": 0.00395}, {"measurement": "fluorescence (ΔFratio)", "setting": "time 20 s", "value": "-3.91E-04"}, {"measurement": "fluorescence (ΔFratio)", "setting": "time 25 s", "value": -0.01211}, {"measurement": "fluorescence (ΔFratio)", "setting": "time 30 s", "value": -0.08353}, {"measurement": "fluorescence (ΔFratio)", "setting": "time 35 s", "value": 0.00717}, {"measurement": "fluorescence (ΔFratio)", "setting": "time 40 s", "value": 0.03324}, {"measurement": "fluorescence (ΔFratio)", "setting": "time 45 s", "value": 0.05289}, {"measurement": "fluorescence (ΔFratio)", "setting": "time 50 s", "value": 0.03768}, {"measurement": "fluorescence (ΔFratio)", "setting": "time 55 s", "value": 0.03322}, {"measurement": "fluorescence (ΔFratio)", "setting": "time 60 s", "value": 0.03103}, {"measurement": "fluorescence (ΔFratio)", "setting": "time 65 s", "value": 0.02272}, {"measurement": "fluorescence (ΔFratio)", "setting": "time 70 s", "value": 0.00255}, {"measurement": "fluorescence (ΔFratio)", "setting": "time 75 s", "value": 0.00791}, {"measurement": "fluorescence (ΔFratio)", "setting": "time 80 s", "value": -0.00287}, {"measurement": "fluorescence (ΔFratio)", "setting": "time 85 s", "value": 0.01077}, {"measurement": "fluorescence (ΔFratio)", "setting": "time 90 s", "value": -0.01792}, {"measurement": "fluorescence (ΔFratio)", "setting": "time 95 s", "value": -0.01119}, {"measurement": "fluorescence (ΔFratio)", "setting": "time 100 s", "value": 0.01819}, {"measurement": "fluorescence (ΔFratio)", "setting": "time 105 s", "value": "8.16E-04"}, {"measurement": "fluorescence (ΔFratio)", "setting": "time 110 s", "value": 0.00558}, {"measurement": "fluorescence (ΔFratio)", "setting": "time 115 s", "value": 0.00369}, {"measurement": "fluorescence (ΔFratio)", "setting": "time 120 s", "value": "7.66E-04"}, {"measurement": "fluorescence (ΔFratio)", "setting": "time 125 s", "value": 0.00667}]}
